Assay: Absorption/emission maxima of dyes in pH 7.4 PBS
Assay type: physicochemical

Row | SMILES | λabs (nm) (in pH 7.4 PBS) | λem (nm) (in pH 7.4 PBS)
1 | N=c1ccc2c(-c3ccccc3C(=O)O)c3ccc(N)c(S(=O)(=O)NCCOCCOCCOCCOCCOCCOCCOCCN)c3oc-2c1S(=O)(=O)O [compound 3] | 488 nm | 516 nm
2 | N=c1ccc2c(-c3ccccc3C(=O)O)c3ccc(N)c(S(=O)(=O)NCCOCCOCCOCCOCCOCCOCCOCCOCCC(=O)ON4C(=O)CCC4=O)c3oc-2c1S(=O)(=O)O [compound 4] | 488 nm | 516 nm
3 | N=c1ccc2c(-c3ccccc3C(=O)O)c3ccc(N)c(S(=O)(=O)NCCCCCC(=O)ON4C(=O)CCC4=O)c3oc-2c1 [compound 1] | 488 nm | 516 nm
4 | COCCOCCNC(=O)c1ccc(-c2c3ccc(=N)c(S(=O)(=O)O)c-3oc3c(S(=O)(=O)NCCOCCOCCOCCOCCC(=O)ON4C(=O)CCC4=O)c(N)ccc23)c(C(=O)O)c1 [compound 5] | 488 nm | 516 nm
5 | N=c1ccc2c(-c3ccccc3C(=O)O)c3ccc(N)cc3oc-2c1S(=O)(=O)NCCCCCC(=O)ON1C(=O)CCC1=O [Compound No. 9] | 529/ nm | 
